From the supplement of paper PMC11061612

Columns and labels:
Assay in all cases: Bliss excess, mean over the matrix (fraction); higher = more synergy
[1] = tested on: UM-UC-3 (Bladder Carcinoma)
In short: (§1)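 Bliss excess equals the observed combination effect minus the expected value EA + EB − EA·EB, where EA and EB are the effects of each agent alone. Combination Emax is the second-highest inhibition within the matrix. Inhibition was scaled from CellTiter-Glo 2.0 luminescence, with 0 set by vehicle wells and 1 by blank wells, after 72 hours of two-drug dosing of cells plated in 1536-well plates.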

ES4 (Ewing's Sarcoma) = tested on: ES4 (Ewing's Sarcoma)
In short: as §1

[2] = tested on: LS-180 (Colorectal Carcinoma)
In short: as §1

[3] = tested on: NCI-H82 (Small Cell Lung Carcinoma)
In short: as §1

[4] = tested on: CAL-148 (Breast Carcinoma)
In short: as §1

[5] = tested on: MDA-MB-361 (Breast Carcinoma)
In short: as §1

[6] = tested on: NCI-H2085 (Non-Small Cell Lung Carcinoma)
In short: as §1

[7] = tested on: HuP-T4 (Pancreatic Carcinoma)
In short: as §1

[8] = tested on: HCC1806 (Breast Carcinoma)
In short: as §1

[9] = tested on: SK-ES-1 (Ewing's Sarcoma)
In short: as §1

42-MG-BA (Glioblastoma) = tested on: 42-MG-BA (Glioblastoma)
In short: as §1

[10] = tested on: TE-15 (Esophageal Squamous Cell Carcinoma)
In short: as §1

NC1(C(=O)N[C@@H](CCO)c2ccc(Cl)cc2)CCN(c2ncnc3[nH]ccc23)CC1 [Capivasertib] + CC(C)n1c(=O)n(C)c2cnc3cc(F)c(-c4ccc(OCCCN5CCCCC5)nc4)cc3c21 [AZD1390] (first compound max 10 µM, 7x7, partner max 0.3 µM)
Bliss excess [1]: -0.0211 | Bliss excess (ES4 (Ewing's Sarcoma)): -0.0585 | Bliss excess [2]: -0.0332 | Bliss excess [3]: 0.0005 | Bliss excess [4]: -0.0509 | Bliss excess [5]: -0.0555 | Bliss excess [6]: -0.0564 | Bliss excess [7]: -0.0978 | Bliss excess [8]: -0.0732 | Bliss excess [9]: 0.0079 | Bliss excess (42-MG-BA (Glioblastoma)): -0.0608 | Bliss excess [10]: -0.0774

NC1(C(=O)N[C@@H](CCO)c2ccc(Cl)cc2)CCN(c2ncnc3[nH]ccc23)CC1 [Capivasertib] + CCN(CCO)CCCOc1ccc2c(Nc3cc(CC(=O)Nc4cccc(F)c4)[nH]n3)ncnc2c1 [AZD2811] (first compound max 10 µM, 7x7, partner max 1 µM)
Bliss excess [1]: -0.0255 | Bliss excess (ES4 (Ewing's Sarcoma)): 0.0317 | Bliss excess [2]: -0.0053 | Bliss excess [3]: 0.0054 | Bliss excess [4]: -0.0142 | Bliss excess [5]: 0.0141 | Bliss excess [6]: -0.0318 | Bliss excess [7]: -0.0614 | Bliss excess [8]: 0.0012 | Bliss excess [9]: -0.0359 | Bliss excess (42-MG-BA (Glioblastoma)): -0.0306 | Bliss excess [10]: -0.0095

NC1(C(=O)N[C@@H](CCO)c2ccc(Cl)cc2)CCN(c2ncnc3[nH]ccc23)CC1 [Capivasertib] + COc1nnc2ccc(N3CCC(c4ccc(OCCN5CCN(C)C(=O)[C@H]5C)cc4)CC3)nn12 [AZD5153] (first compound max 10 µM, 7x7, partner max 1 µM)
Bliss excess [1]: -0.0158 | Bliss excess (ES4 (Ewing's Sarcoma)): -0.0175 | Bliss excess [2]: -0.0055 | Bliss excess [3]: -0.139 | Bliss excess [4]: 0.0504 | Bliss excess [5]: 0.0588 | Bliss excess [6]: 0.044 | Bliss excess [7]: -0.0315 | Bliss excess [8]: -0.003 | Bliss excess [9]: 0.0815 | Bliss excess (42-MG-BA (Glioblastoma)): 0.0611 | Bliss excess [10]: 0.0642

NC1(C(=O)N[C@@H](CCO)c2ccc(Cl)cc2)CCN(c2ncnc3[nH]ccc23)CC1 [Capivasertib] + C[C@@H]1COCCN1C2=NC(=NC(=C2)C3(CC3)[S@](=N)(=O)C)C4=C5C=CNC5=NC=C4 [AZD6738] (first compound max 10 µM, 7x7, partner max 10 µM)
Bliss excess [1]: 0.0085 | Bliss excess (ES4 (Ewing's Sarcoma)): -0.0919 | Bliss excess [2]: -0.159 | Bliss excess [3]: -0.0279 | Bliss excess [4]: 0.0222 | Bliss excess [5]: -0.11 | Bliss excess [6]: -0.0192 | Bliss excess [7]: -0.0333 | Bliss excess [8]: -0.0333 | Bliss excess [9]: -0.0831 | Bliss excess (42-MG-BA (Glioblastoma)): -0.0514 | Bliss excess [10]: -0.0494

NC1(C(=O)N[C@@H](CCO)c2ccc(Cl)cc2)CCN(c2ncnc3[nH]ccc23)CC1 [Capivasertib] + Cn1cnc2c(F)c(Nc3ccc(Br)cc3Cl)c(C(=O)NOCCO)cc21 [Selumetinib] (first compound max 10 µM, 7x7, partner max 10 µM)
Bliss excess [1]: 0.0946 | Bliss excess (ES4 (Ewing's Sarcoma)): -0.0219 | Bliss excess [2]: -0.0247 | Bliss excess [3]: -0.131 | Bliss excess [4]: 0.0597 | Bliss excess [5]: 0.0297 | Bliss excess [6]: 0.0035 | Bliss excess [7]: 0.028 | Bliss excess [8]: 0.0578 | Bliss excess [9]: 0.0507 | Bliss excess (42-MG-BA (Glioblastoma)): 0.0697 | Bliss excess [10]: 0.0234

Cc1nc(Nc2ncc(C(=O)Nc3c(C)cccc3Cl)s2)cc(N2CCN(CCO)CC2)n1 [Dasatinib] + CC(=O)Nc1cccc(-n2c(=O)n(C3CC3)c(=O)c3c(Nc4ccc(I)cc4F)n(C)c(=O)c(C)c32)c1 [Trametinib] (first compound max 2 µM, 7x7, partner max 1 µM)
Bliss excess [1]: 0.112 | Bliss excess (ES4 (Ewing's Sarcoma)): -0.0951 | Bliss excess [2]: 0.0883 | Bliss excess [3]: -0.0149 | Bliss excess [4]: -0.0252 | Bliss excess [5]: -0.0072 | Bliss excess [6]: 0.0168 | Bliss excess [7]: 0.0075 | Bliss excess [8]: -0.0461 | Bliss excess [9]: -0.0256 | Bliss excess (42-MG-BA (Glioblastoma)): -0.023 | Bliss excess [10]: -0.0414

COc1cccc2c1C(=O)c1c(O)c3c(c(O)c1C2=O)C[C@@](O)(C(=O)CO)C[C@@H]3O[C@H]1C[C@H](N)[C@H](O)[C@H](C)O1 [Doxorubicin] + Cc1cc2ncnn2cc1Nc1ncc2c(n1)n(C1CCOCC1)c(=O)n2C [AZD7648] (first compound max 1 µM, 7x7, partner max 10 µM)
Bliss excess [1]: 0.0688 | Bliss excess (ES4 (Ewing's Sarcoma)): 0.0761 | Bliss excess [2]: 0.0033 | Bliss excess [3]: 0.0827 | Bliss excess [4]: 0.165 | Bliss excess [5]: 0.0255 | Bliss excess [6]: 0.0299 | Bliss excess [7]: 0.0316 | Bliss excess [8]: 0.0499 | Bliss excess [9]: 0.143 | Bliss excess (42-MG-BA (Glioblastoma)): 0.0271 | Bliss excess [10]: 0.0507

COc1cc2ncnc(Nc3ccc(F)c(Cl)c3)c2cc1OCCCN1CCOCC1 [Gefitinib] + CC(C)n1c(=O)n(C)c2cnc3cc(F)c(-c4ccc(OCCCN5CCCCC5)nc4)cc3c21 [AZD1390] (first compound max 10 µM, 7x7, partner max 0.3 µM)
Bliss excess [1]: -0.0583 | Bliss excess (ES4 (Ewing's Sarcoma)): -0.0177 | Bliss excess [2]: -0.0623 | Bliss excess [3]: -0.0088 | Bliss excess [4]: -0.0344 | Bliss excess [5]: -0.0535 | Bliss excess [6]: -0.0515 | Bliss excess [7]: -0.0574 | Bliss excess [8]: -0.0425 | Bliss excess [9]: -0.0733 | Bliss excess (42-MG-BA (Glioblastoma)): -0.0891 | Bliss excess [10]: -0.0941

CS(=O)(=O)CCNCc1ccc(-c2ccc3ncnc(Nc4ccc(OCc5cccc(F)c5)c(Cl)c4)c3c2)o1 [Lapatinib] + C[C@@H](Oc1cc(-c2cnn(C3CCNCC3)c2)cnc1N)c1c(Cl)ccc(F)c1Cl [Crizotinib] (first compound max 10 µM, 7x7, partner max 10 µM)
Bliss excess [1]: -0.0739 | Bliss excess (ES4 (Ewing's Sarcoma)): -0.0261 | Bliss excess [2]: 0.0173 | Bliss excess [3]: -0.0273 | Bliss excess [4]: -0.0105 | Bliss excess [5]: 0.0278 | Bliss excess [6]: -0.0813 | Bliss excess [7]: 0.0261 | Bliss excess [8]: -0.0266 | Bliss excess [9]: -0.0015 | Bliss excess (42-MG-BA (Glioblastoma)): -0.0709 | Bliss excess [10]: -0.0148

CC(=O)c1c(C)c2cnc(Nc3ccc(N4CCNCC4)cn3)nc2n(C2CCCC2)c1=O [Palbociclib] + CC1(C)CCC(CN2CCN(c3ccc(C(=O)NS(=O)(=O)c4ccc(NCC5CCOCC5)c([N+](=O)[O-])c4)c(Oc4cnc5[nH]ccc5c4)c3)CC2)=C(c2ccc(Cl)cc2)C1 [Venetoclax] (first compound max 10 µM, 7x7, partner max 1 µM)
Bliss excess [1]: -0.0219 | Bliss excess (ES4 (Ewing's Sarcoma)): -0.0334 | Bliss excess [2]: -0.0124 | Bliss excess [3]: -0.0648 | Bliss excess [4]: -0.0161 | Bliss excess [5]: -0.0751 | Bliss excess [6]: -0.0306 | Bliss excess [7]: -0.0281 | Bliss excess [8]: -0.0213 | Bliss excess [9]: 0.0758 | Bliss excess (42-MG-BA (Glioblastoma)): -0.0093 | Bliss excess [10]: -0.0257
